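Results reflect a 48-hour exposure of cells in 96-well plates to compound at five concentrations. GI50: concentration for 50% inhibition of growth.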 Active and inactive are the calls of the source. No stated cut-off is given here; in the data, active = GI50 up to about 1.1 µM and inactive = higher. A value given as a limit tells only on which side of the number the result lay.

Test in all cases: NCI tumour cell line growth inhibition, 48 h
For assay [1], the system named is SF-268.
Assay [2] relates to SN12C.
The subject of assay [3] is RPMI-8226.
Assay [4] deals with SW-620.
Assay [5] relates to NCI/ADR-RES.
Assay [6] deals with U-251.
For assay [7], the system named is UACC-62.
Assay [8] relates to HCT-15.
Assay [9] concerns OVCAR-5.
The subject of assay [10] is UACC-257.
Assay [11] has as its system SF-539.
Assay [12] relates to EKVX.
In assay [13] the test system is SK-MEL-5.
The test system of assay [14] is KM12.
Assay [15] deals with BT-549.
Assay [16] concerns SK-MEL-28.
The subject of assay [17] is NCI-H522.
Assay [18] concerns DU-145.
Assay [19] relates to SNB-19.
The subject of assay [20] is OVCAR-4.

On to `CCOC(=O)[C@@H]1C[C@H]1c1ccc(O)c(O)c1`, for which the GI50 in assay [1] is 67.6 µM (inactive); in [2], 75.5 µM (inactive); in [3], 30.9 µM (inactive); in assay [4], 18.6 µM (inactive); in [5], 43.3 µM (inactive); in assay [6] it was 69.7 µM (inactive). Besides, the GI50 is 17.1 µM (inactive) in assay [7]; 33.6 µM in assay [8]; > 100 µM (inactive) in assay [9]; 19.9 µM (inactive) in assay [10]; 91 µM (inactive) in assay [11]; > 100 µM (inactive) in assay [12]. In addition, the GI50 was 16.6 µM (inactive) in [13]; > 100 µM (inactive) in assay [14]; 43.4 µM (inactive) in assay [15]; 25.4 µM (inactive) in [16]; 16.4 µM (inactive) in assay [17]; 10.1 µM (inactive) in assay [18]. The GI50 in assay [19] was > 100 µM (inactive).

Turning to `O=C1CSC2(CCN(CCCN3c4ccccc4Sc4ccc(Cl)cc43)CC2)N1`, the GI50 in assay [1] is 8.34 µM (inactive); in [2], 10.8 µM (inactive); in assay [3], 6.05 µM (inactive); in [4], 11.2 µM (inactive); in assay [5], 4.9 µM (inactive); in [6], 8.51 µM (inactive). For the same compound, the GI50 was 11.5 µM (inactive) in assay [7]; 6.78 µM in assay [8]; 11.9 µM (inactive) in assay [9]; 9.35 µM (inactive) in assay [10]; 13.1 µM (inactive) in assay [11]; 9.31 µM (inactive) in [12]. For the same compound, the GI50 in assay [13] was 11 µM (inactive); in [14] it was 6.65 µM (inactive); in [15], 12.1 µM (inactive); in assay [16], 15 µM (inactive); in assay [20], 10.5 µM (inactive); in assay [17], 10.1 µM (inactive). Besides, the values for the GI50 in assay [18] and in [19] were 11.9 µM (inactive) and 12.1 µM (inactive), respectively.

For `Cc1cccc(-c2cccc(COCc3cccc(-c4cccc(CO)n4)n3)n2)n1`, the GI50 in assay [1] is > 50 µM (inactive); in assay [2], > 50 µM (inactive); in [3], 33.3 µM (inactive); in [4], > 50 µM (inactive); in assay [5] it was 5.26 µM (inactive); in assay [6], > 50 µM (inactive). Moreover, the GI50 in [7] is > 50 µM (inactive); in assay [8], 35.2 µM; in assay [9], > 50 µM (inactive); in [10], 12.8 µM (inactive); in assay [11], > 50 µM (inactive); in assay [12], 35.5 µM (inactive). Further, the GI50 in assay [13] is 11.7 µM (inactive); in assay [14] it was > 50 µM (inactive); in assay [15], 19.3 µM (inactive); in [16] it was > 50 µM (inactive); in assay [20], > 50 µM (inactive); in [17] it was > 50 µM (inactive). For the same compound, the GI50 in assay [18] and in assay [19] was > 50 µM (inactive) in each case.

For the compound `NC(=O)C(c1ccccc1)N1OC2C(=O)N(c3ccccc3)C(=O)C2C1c1c2ccccc2c(Cl)c2ccccc12` (stereo not given), the GI50 in assay [1], in assay [2], in [3], in [4], in assay [5] and in [6] was > 100 µM (inactive) throughout. For the same compound, the GI50 is > 100 µM (inactive) in [7]; above 100 µM in assay [8]; > 100 µM (inactive) in assay [9]; > 100 µM (inactive) in assay [11]; > 100 µM (inactive) in assay [12]; > 100 µM (inactive) in assay [13]. Besides, the GI50 in assay [14], in assay [15], in assay [16], in assay [20], in [17] and in assay [18] was > 100 µM (inactive) throughout. For the same compound, the GI50 in [19] was > 100 µM (inactive).

`O=CN(CCN1CCCC1)C1CCc2cc(Cl)c(Cl)cc2C1` (stereo not given): the GI50 was 18.5 µM (inactive) in assay [1]; 11 µM (inactive) in [2]; 20.6 µM (inactive) in [3]; 27.3 µM (inactive) in assay [4]; 19.5 µM (inactive) in assay [5]; 0.513 µM (active) in [6]. Moreover, the GI50 in [8] is 15.8 µM; in [9], 17.4 µM (inactive); in [10] it was 15.2 µM (inactive); in [11] it was 30.5 µM (inactive); in assay [12] it was 27.2 µM (inactive); in assay [13], 27.2 µM (inactive). For the same compound, the GI50 in assay [14] is 4.5 µM (inactive); in assay [15] it was 14.1 µM (inactive); in assay [20], 18.7 µM (inactive); in assay [17] it was 10.1 µM (inactive); in assay [18], 34.7 µM (inactive); in assay [19] it was 0.851 µM (active).

Take `C=CCC(C(=O)Nc1cccc2nc[nH]c12)C(=O)OCC` (stereo not given): the GI50 in assay [1] is > 100 µM (inactive); in assay [2], > 100 µM (inactive); in [3] it was > 100 µM (inactive); in assay [4] it was > 100 µM (inactive); in assay [5], 83.6 µM (inactive); in assay [6] it was > 100 µM (inactive). The GI50 in [7] is 85.3 µM (inactive); in assay [8] it was above 100 µM; in [9], > 100 µM (inactive); in assay [10] it was > 100 µM (inactive); in assay [11] it was > 100 µM (inactive); in assay [12], > 100 µM (inactive). In addition, the GI50 in [14] is > 100 µM (inactive); in assay [15], > 100 µM (inactive); in assay [16], > 100 µM (inactive); in assay [20] it was 43.1 µM (inactive); in assay [17], > 100 µM (inactive); in assay [18], > 100 µM (inactive). The GI50 in [19] was > 100 µM (inactive).

As to `Nc1ccccc1C(=O)CC1OC(=O)c2ccccc21` (stereo not given), the GI50 in assay [1] is 69.3 µM (inactive); in [2] it was > 100 µM (inactive); in assay [3], 38.1 µM (inactive); in assay [4] it was > 100 µM (inactive); in assay [5] it was 60.1 µM (inactive); in assay [6], 48.4 µM (inactive). The GI50 in [7] is 64.9 µM (inactive); in [8], 86.5 µM; in [9], > 100 µM (inactive); in [10] it was > 100 µM (inactive); in assay [11] it was 36 µM (inactive); in [12] it was 34.9 µM (inactive). Besides, the GI50 in assay [14] is 33.4 µM (inactive); in assay [15] it was 35 µM (inactive); in assay [16], > 100 µM (inactive); in assay [20], 65.5 µM (inactive); in [17], > 100 µM (inactive); in assay [18] it was 51.4 µM (inactive). Besides, the GI50 in assay [19] is 42.1 µM (inactive).

Consider `Oc1[nH]c(Nc2ccc(Cl)c(C(F)(F)F)c2)nc2ncnc1-2`, for which the GI50 in assay [1] was 36.2 µM (inactive); in [2] it was 32.5 µM (inactive); in assay [3] it was > 100 µM (inactive); in assay [4] it was 70 µM (inactive); in [5], > 100 µM (inactive); in [6], 50.5 µM (inactive). The GI50 in assay [7] was 32.6 µM (inactive); in assay [8] it was above 100 µM; in assay [9], 65.9 µM (inactive); in [10], 59.2 µM (inactive); in assay [11], 26 µM (inactive); in assay [12] it was 53.1 µM (inactive). Moreover, the GI50 was 40.4 µM (inactive) in assay [13]; 44.8 µM (inactive) in [14]; 36.6 µM (inactive) in [15]; 72.1 µM (inactive) in assay [20]; 14.2 µM (inactive) in [17]; 36.1 µM (inactive) in assay [18]. Besides, in assay [19], the GI50 is 45.1 µM (inactive).

Take `O=C1/C(=C/c2ccccc2)CCCc2ccccc21`: the GI50 in [1] is 17.7 µM (inactive); in assay [2] it was 19.6 µM (inactive); in assay [3], 16.6 µM (inactive); in assay [4], 17.7 µM (inactive); in assay [5], 20 µM (inactive); in assay [6] it was 15.7 µM (inactive). For the same compound, the GI50 was 15.1 µM (inactive) in assay [7]; 16.2 µM in assay [8]; 19.1 µM (inactive) in assay [9]; 15.7 µM (inactive) in assay [10]; 17.9 µM (inactive) in assay [11]; 19.5 µM (inactive) in assay [12]. Besides, the GI50 in assay [14] was 18.1 µM (inactive); in assay [15], 20 µM (inactive); in assay [16], 17.4 µM (inactive); in assay [20], 17.3 µM (inactive); in assay [17], 21.1 µM (inactive); in assay [18], 23.2 µM (inactive). The GI50 in assay [19] was 14 µM (inactive).

Consider `O=C(/C=C/c1ccc(/C=C/C(=O)c2ccc(O)cc2)cc1)c1ccc(O)cc1`, for which the GI50 in assay [1] is > 100 µM (inactive); in assay [2] it was > 100 µM (inactive); in assay [3] it was > 100 µM (inactive); in assay [4], > 100 µM (inactive); in assay [5], > 100 µM (inactive); in [6] it was 16.4 µM (inactive). Also, the GI50 in assay [7] is > 100 µM (inactive); in [8], above 100 µM; in assay [9], > 100 µM (inactive); in assay [10], > 100 µM (inactive); in assay [11], > 100 µM (inactive); in [12], > 100 µM (inactive). For the same compound, the GI50 in assay [13] was > 100 µM (inactive); in assay [14], > 100 µM (inactive); in [15], > 100 µM (inactive); in [16] it was > 100 µM (inactive); in assay [17], > 10 µM (inactive); in assay [18], > 100 µM (inactive). Moreover, in assay [19], the GI50 was > 100 µM (inactive).

In the case of `CNc1c2c(c3nc4ccccc4c4c3c1N=C4)NCCC2=O` [PLAKINIDINE A], the GI50 in assay [1] was 3.33 µM (inactive); in assay [2] it was 4.22 µM (inactive); in assay [3], 2.57 µM (inactive); in assay [4], 2.44 µM (inactive); in assay [5], 2.83 µM (inactive); in [6], 5.87 µM (inactive). Further, the GI50 in [8] was 6.4 µM; in assay [9], 5.83 µM (inactive); in assay [10] it was > 10 µM (inactive); in [11] it was 3.9 µM (inactive); in assay [12] it was > 10 µM (inactive); in [13], 6.55 µM (inactive). The GI50 is 4.79 µM (inactive) in assay [14]; 7.74 µM (inactive) in assay [15]; > 10 µM (inactive) in [16]; 7.83 µM (inactive) in assay [20]; 3.27 µM (inactive) in [17]; > 10 µM (inactive) in [18]. Besides, the GI50 in assay [19] is > 10 µM (inactive).

The values above are taken from ChEMBL document CHEMBL1201862, “PubChem BioAssay data set” (2004).
